No end group written: not given here. *: point of attachment. Palmitoyl = CCCCCCCCCCCCCCCC(=O)*

The target in data set [1] is T1, vinculin (Homo sapiens, UniProt P18206).
T1 sequence (P18206 1-1066 isoform P18206-2): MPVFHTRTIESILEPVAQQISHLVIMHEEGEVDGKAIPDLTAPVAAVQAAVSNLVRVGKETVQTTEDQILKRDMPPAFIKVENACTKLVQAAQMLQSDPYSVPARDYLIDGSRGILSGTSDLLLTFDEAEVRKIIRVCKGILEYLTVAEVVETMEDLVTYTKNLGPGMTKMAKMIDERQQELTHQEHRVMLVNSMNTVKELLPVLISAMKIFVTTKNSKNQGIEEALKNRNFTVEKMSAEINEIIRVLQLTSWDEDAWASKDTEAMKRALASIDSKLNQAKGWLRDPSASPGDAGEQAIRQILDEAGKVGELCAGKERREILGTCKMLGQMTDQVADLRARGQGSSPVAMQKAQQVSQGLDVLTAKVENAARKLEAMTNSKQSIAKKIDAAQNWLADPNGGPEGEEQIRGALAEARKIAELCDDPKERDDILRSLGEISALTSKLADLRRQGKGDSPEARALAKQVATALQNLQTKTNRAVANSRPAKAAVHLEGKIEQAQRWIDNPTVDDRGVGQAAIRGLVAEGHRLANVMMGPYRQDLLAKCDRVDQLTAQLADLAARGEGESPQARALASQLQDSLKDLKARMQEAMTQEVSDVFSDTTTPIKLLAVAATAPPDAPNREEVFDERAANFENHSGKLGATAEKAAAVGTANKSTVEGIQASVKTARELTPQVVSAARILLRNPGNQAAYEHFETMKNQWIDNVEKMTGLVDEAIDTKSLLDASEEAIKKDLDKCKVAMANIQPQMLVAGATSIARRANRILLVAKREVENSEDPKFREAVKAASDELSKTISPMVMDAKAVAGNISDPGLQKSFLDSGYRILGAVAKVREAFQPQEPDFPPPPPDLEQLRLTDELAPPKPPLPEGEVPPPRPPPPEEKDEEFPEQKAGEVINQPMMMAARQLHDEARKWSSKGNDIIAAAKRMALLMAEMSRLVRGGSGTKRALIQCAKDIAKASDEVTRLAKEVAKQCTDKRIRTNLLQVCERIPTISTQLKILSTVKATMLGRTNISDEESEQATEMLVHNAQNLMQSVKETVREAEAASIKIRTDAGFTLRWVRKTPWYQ
Put plainly: Surface plasmon resonance, peptides injected over immobilised vinculin. Type of data set: binding. The conditions noted are these: SPR, CM5 chip, serial peptide injections at 1 mM; rank order. As for the experimental part:
The SPR experiments were performed using a Biacore T200 system (GE Healthcare), and Series S CM5 or SA chips with 4 flow cells each.
Lyophilized vinculin was dissolved in flow buffer to a concentration of 1 mg/ml and covalently coupled onto the carboxymethylated dextran matrix of CM5 sensor chips using standard amine coupling. The flow buffer contained 10 mM HEPES, 150 mM NaCl, 3 mM EDTA, 0.05% surfactant P20. The chip was activated with an injection of 70 μl of a mixture of 0.05 M EDC and 0.2 M NHS, followed by the injection of approximately 70 μl of 10 μg/ml vinculin in 10 mM sodium acetate, pH 5.0 in one flow cell to yield a response of 7200 RU. Remaining reactive groups in the channel were blocked with an injection of 100 μl ethanolamine. Binding experiments were performed by injecting peptides for 120 s at a flow rate of 20 μl/min, at a concentration of 1 mM in the flow buffer over the chip surface to monitor association kinetics, followed by buffer flow for 120 s to measure dissociation kinetics. Between experiments, the surface was regenerated by injecting a 60 second pulse of 10 mM glycine pH 2.

Data set [2] relates to resting platelets. Put plainly: Platelet aggregation induced by peptide in resting washed platelets (activation). The data set is classed as cell-based, human (healthy volunteers). The following applies: for Platelet activation, donor 14 06 13 / Platelet activation, donor 18 06 13 / Platelet activation, donor 22 08 13 DONOR1 / Platelet activation, donor 22 08 13 DONOR2: Fig S10 sheet; for Platelet activation, donor 14 06 13: replicate 14_06_13; for Platelet activation, donor 14 06 13 / Platelet activation, donor 18 06 13 / Platelet activation, donor 22 08 13 DONOR1 / Platelet activation, donor 22 08 13 DONOR2 / Activation: unit assumed; for Platelet activation, donor 18 06 13: replicate 18_06_13; for Platelet activation, donor 22 08 13 DONOR1: replicate 22_08_13_DONOR1; for Platelet activation, donor 22 08 13 DONOR2: replicate 22_08_13_DONOR2; for Activation: platelet aggregation in resting platelets after 6 minutes incubation with peptide, pal-peptides 20 μM, tat-peptides 50 μM, optical density, aggregometer, mean, n>=3; for Aggregation before TRAP activation, donor d: replicate donor d; for Aggregation before TRAP activation, donor d / Aggregation before TRAP activation, donor f / Aggregation before TRAP activation, donor g: pal 20 μM, tat 50 μM; for Aggregation before TRAP activation, donor f: replicate donor f; for Aggregation before TRAP activation, donor g: replicate donor g. The gist of the method: (§1)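 Aggregation was read by optical density at 37°C under 1100 rpm stirring. Samples were 3x10^5/μl washed human platelets, rested 45 min and supplemented with 1.8 mM calcium chloride. Peptide went in at 2 min, followed 6 min later by TRAP at an experiment-dependent concentration, with 7 min further recording.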

For data set [3], the target named is vinculin (UniProt P18206).
The subject of data set [4] is TRAP-activated platelets. Nature of the data set: Inhibition of TRAP-induced platelet aggregation after pre-incubation with peptide. Type of data set: cell-based, human (healthy volunteers). The following applies: for Platelet aggregation remaining after TRAP (low = inhibition): platelet aggregation induced by 4 μM TRAP in platelets pre-incubated with peptide (low value = inhibition), pal-peptides 20 μM, tat-peptides 50 μM, mean, n>=3; for Aggregation after TRAP activation, donor d: replicate donor d; for Aggregation after TRAP activation, donor d / Aggregation after TRAP activation, donor f / Aggregation after TRAP activation, donor g: TRAP 4 μM, pal 20 μM, tat 50 μM; for Aggregation after TRAP activation, donor f: replicate donor f; for Aggregation after TRAP activation, donor g: replicate donor g. The gist of the method: as §1

The format of data set [5] is physicochemical. As for the experimental part: Peptides were stored in powder form at -80°C. Prior to use, they were left at room temperature for one hour. They were then mixed with a specific volume of deionised water to bring them to a 1mM concentration and were then aliquoted and frozen at -80°C. They were thawed a single time before use and discarded after an experiment. Peptides which were not soluble in deionised water (pal-APTNEFYA, pal-LEEDDEEGE, pal-TNITYRGT and pal-KLLITIHDRKE) were dissolved in a 10% DMSO and 90% deionised water solution (leading to a final concentration of 0.2% DMSO when combined with platelets, see below). These peptides were further diluted during platelet aggregations.

Data set [6] has as its target Syntenin-1 (UniProt O00560).

Chain of Syntenin-1 (O00560 whole entry): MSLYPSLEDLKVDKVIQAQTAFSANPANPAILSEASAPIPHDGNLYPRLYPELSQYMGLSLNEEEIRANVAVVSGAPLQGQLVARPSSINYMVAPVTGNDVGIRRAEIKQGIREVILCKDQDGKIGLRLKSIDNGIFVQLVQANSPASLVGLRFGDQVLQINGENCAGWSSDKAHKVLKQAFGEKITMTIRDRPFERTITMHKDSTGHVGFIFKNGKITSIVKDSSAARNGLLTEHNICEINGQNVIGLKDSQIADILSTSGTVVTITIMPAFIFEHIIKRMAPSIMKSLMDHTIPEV

Regarding “ACTN1_VBS: ACTN1_VBS peptide lacking the tat (WEQLLTTIARTINEVENQI)”, the “Relative binding affinity to immobilised vinculin” value in data set [1] is “tat-ACTN1_VBS > TLN1_VBS-tat > ACTN1_VBS-tat > ACTN1_VBS”. In data set [2] (peptide 50 µM), this molecule gave a Platelet activation, donor 14 06 13 of 35%; a Platelet activation, donor 18 06 13 of 11%; a Platelet activation, donor 22 08 13 DONOR1 of 7%; a Platelet activation, donor 22 08 13 DONOR2 of 11%.

With “ACTN1_VBS-tat: ACTN1 vinculin-binding peptide with the tat peptide at the C-terminus (WEQLLTTIARTINEVENQIGRKKRRQRRRPPQ)”, the “Relative binding affinity to immobilised vinculin” value in data set [1] is “tat-ACTN1_VBS > TLN1_VBS-tat > ACTN1_VBS-tat > ACTN1_VBS”. In data set [2] (peptide 50 µM), this molecule registered a Platelet activation, donor 14 06 13 of 45%; a Platelet activation, donor 18 06 13 of 11%; a Platelet activation, donor 22 08 13 DONOR1 of 32%; a Platelet activation, donor 22 08 13 DONOR2 of 4%. In data set [2] (S10 Fig, peptide 50 µM, in words), the “Platelet activating effect compared with N-terminal tat attachment” value is “weaker platelet activating effect”.

In data set [3], tat-ACTN1_VBS (peptide) returned an Activation: platelet aggregation induced in resting platelets after 6 minutes incubation with peptides (50μM) of 66.

For the molecule “pal-LEEDDEEGE [pal-ITGA2B_tail, N-terminally palmitylated ITGA2B tail peptide]”, the “Aggregation after TRAP, peptide alone 1x (A 1x / B 1x)” value in data set [4] (TRAP 2 μM after 6 minutes pre-incubation, 4 μM pal-peptides, 10 μM tat-peptides, mean n = 3) came out at 65.67. Besides, in data set [4] (TRAP 2 μM after 6 minutes pre-incubation, double concentration of 4 μM (pal) / 10 μM (tat), mean n = 3), the “Aggregation after TRAP, peptide alone 2x (A 2x / B 2x)” value is listed as 66. For the same molecule, in data set [4], the “Platelet aggregation remaining after TRAP (low = inhibition)” value is listed as 52; the “Aggregation after TRAP activation, donor d” value was determined as 74; the “Aggregation after TRAP activation, donor f” value is on record as 76; the “Aggregation after TRAP activation, donor g” value is 4. For the same molecule, in data set [5], the “Solubility in deionised water” value was “not soluble”. Further, in data set [2], the Activation came out at 2%; the “Aggregation before TRAP activation, donor d” value worked out at 2; the “Aggregation before TRAP activation, donor f” value was 3; the “Aggregation before TRAP activation, donor g” value is reported as 2.

As to “pal-TNITYRGT [pal-ITGB3_tail, N-terminally palmitylated ITGB3 tail peptide]”, in data set [4], the “Platelet aggregation remaining after TRAP (low = inhibition)” value stood at 71; the “Aggregation after TRAP activation, donor d” value came to 74; the “Aggregation after TRAP activation, donor f” value was determined as 77; the “Aggregation after TRAP activation, donor g” value was determined as 63. Besides, in data set [5], the “Solubility in deionised water” value is reported as “not soluble”. For the same molecule, in data set [2], the Activation was 3%; the “Aggregation before TRAP activation, donor d” value stood at 2; the “Aggregation before TRAP activation, donor f” value was 5; the “Aggregation before TRAP activation, donor g” value is 3.

For the molecule “pal-KLLITIHDRKE-(NH2) [pal-ITGB3_JM, N-terminally palmitylated ITGB3 juxtamembrane peptide]”, in data set [4], the “Platelet aggregation remaining after TRAP (low = inhibition)” value was determined as 73; the “Aggregation after TRAP activation, donor d” value is recorded as 76; the “Aggregation after TRAP activation, donor f” value is given as 77; the “Aggregation after TRAP activation, donor g” value was found to be 68. The “Solubility in deionised water” value in data set [5] was “not soluble”. In addition, in data set [2], the Activation was 4%; the “Aggregation before TRAP activation, donor d” value stood at 4; the “Aggregation before TRAP activation, donor f” value came to 3; the “Aggregation before TRAP activation, donor g” value was determined as 5.

In data set [6], Palmitoyl-APTNEFYA [pal-SDC4_tail] had an Inhibition: platelet aggregation induced by 4μM TRAP in platelets pre-incubated with peptide (20μM) of 34.

(Values after paper PMC6349357, “Computational and experimental analysis of bioactive peptide linear motifs in the integrin adhesome” (PLoS ONE, 2019).)
